“Also recorded” adds a separate entry of the source. Each block holds one substance with its values, some of them ahead of it.
Assays:
ΔF508-CFTR [1] = assay: Ussing chamber chloride efflux; format: cell-based, human
ΔF508-CFTR [2] = assay: Ussing chamber chloride efflux, residual ΔISC after CHX; format: cell-based, human
ΔF508-CFTR [3] = format: cell-based, human; conditions: surface biotinylation and Western blotting; p = 0.35, n = 14
CFBE-ΔF cells = assay: peptide uptake by fluorescence microscopy; conditions: BioPORTER delivery, fluorescence microscopy (Figure S1)
CAL PDZ domain (CALP) = assay: NMR HSQC binding-site mapping on 15N-CALP; conditions: 15N-CALP HSQC

Substance: AALKEETEEEVQDTRL [CFTR16]
increase in ΔISC (ΔF508-CFTR [1]; absence of CHX, relative to the scrambled control (Figure 5)): did not significantly increase

Substance: F*-ANSRWPTSII [F*-iCAL36]
residual ΔISC increase vs control monolayers (ΔF508-CFTR [2]; CHX 2 h, relative to control (F*-SCR) monolayers, p = 0.0005): 25%
increase in apical ΔF508-CFTR (significance, words) (ΔF508-CFTR [3]): not statistically significant
peptide uptake (CFBE-ΔF cells): confirmed

mode of binding / binding site on CALP (CAL PDZ domain (CALP); 800 μM iCAL36, normalized chemical shift perturbation Δ ≥ 0.15): competitive inhibitor
Substance: ANSRWPTSII [iCAL36]
additional contacts compared to CFTR8 (CAL PDZ domain (CALP); compared to the CFTR8 octamer, listed as iCAL36_10): extends beyond that of CFTR8; also recorded: makes additional contacts at the distal end of the peptide-binding groove
effect on ΔF508-CFTR biogenesis/maturation (ΔF508-CFTR [1]; comparison of ΔISC increase in absence (26%) and presence (25%) of CHX): does not strongly affect biogenesis

peptide uptake (CFBE-ΔF cells): confirmed
Substance: F*-SPTINSAIWR [F*-SCR, reference compound]
residual ΔISC, % of baseline (ΔF508-CFTR [2]; 2 h CHX exposure, % of 0 h starting value, n = 9): 60%
shift in chloride efflux (ΔISC) compared to untreated cells (ΔF508-CFTR [1]; CFBE-ΔF polarized monolayers, 37 °C, peptide/BioPORTER (500 μM), compared to untreated cells): ≤ 4%

Source: article PMC3033200 (Angewandte Chemie (International ed. in English), 2010)
